Key:
Assay type in all cases: in vivo, human
[1] = Phase I single dose study, plasma tramiprosate pharmacokinetics; conditions: single dose of oral ALZ-801
Excerpt: (§1) To advance the clinical development of ALZ-801 into Phase 3, we have completed single dose and 14-day multiple ascending dose Phase 1 bridging studies in healthy elderly volunteers to evaluate safety, tolerability and pharmacokinetics. […] The longer half-life observed in the multiple ascending dose studies was obtained after 14 days of BID dosing and was due to the fact that there were more extended blood sampling time points taken in that study as compared to the single dose study.

[2] = ALZ-801 immediate release tablet, pharmacokinetics and GI tolerability fed vs fasted
[3] = Phase I 14-day multiple ascending dose study, plasma tramiprosate pharmacokinetics; conditions: over 14 days
Excerpt: as §1

CC(C)[C@H](N)C(=O)NCCCS(=O)(=O)O [ALZ-801, valyl-3-amino-1-propanesulfonic acid]
Plasma exposure of tramiprosate compared with oral tramiprosate [1]: equivalent plasma exposure of tramiprosate
Incidence of GI symptoms with food compared to the fasted state ([2]; ALZ-801 immediate release tablet): markedly reduced
Difference in pharmacokinetic parameters between fed and fasted subjects ([2]; ALZ-801 tablet, single dose of 205 mg): no significant difference
Dose proportionality and accumulation of plasma tramiprosate exposure [3]: excellent dose proportionality without accumulation or decrease in plasma exposure

— patent publication US11191742B2, “Methods of treating neurodegenerative disorders in a particular population” (ALZHEON, INC., priority 2015, dated 2021)
